Measurements from patent US20240180865A1, “SUSTAINED-RELEASE LIPID PRE-CONCENTRATE” (TIONLAB THERAPEUTICS, priority 2021, published 2024).

Assay: Peroxide value of liquid crystal former according to type of stabilizer
Format: physicochemical
Settings: 0.3 g stabilizer in 3 g safflower oil, castor oil, cottonseed oil or oleic acid; 60° C. for two weeks
Procedure: 0.3 g of each of tocopherol, ViC_palmitate, mannitol, and ViC_Na was added as stabilizers to 3 g of each of safflower oil, castor oil, cottonseed oil, and oleic acid. After the resulting mixture was heated at 45 to 60° C. after DI treatment, it was cooled to room temperature and left to stand for 3 hours.
The degree of rancidity was evaluated by allowing the mixture to stand under harsh conditions of 60° C. for two weeks to measure the peroxide value of the liquid crystal former.
In order to measure the peroxide value, 0.3 g of the sample was weighed into a 300-ml Erlenmeyer flask, and then 30 ml of a solution of chloroform:glacial acetic acid (2:3) was added thereto. After a temporary dark place was created with silver foil paper, 1 ml of a KI saturated solution was added, and the resulting mixture was shaken vigorously, and then left to stand in the dark place for 5 minutes. Thereafter, 30 ml of distilled water was again added thereto, 1 ml of a 1% starch solution was added thereto, and then the resulting mixture was vigorously mixed. Thereafter, the mixture was titrated with a 0.01 N-Na2S2O3 standard solution while stirring with a magnetic stirrer, and the end point was set to the time when the dark blue color of the starch disappeared. Thereafter, the peroxide value of the sample was determined using the following equation. […]

Compound	peroxide value of the liquid crystal former
CCCCCCCCCCCCCCCC(=O)OC[C@H](O)[C@H]1OC(=O)C(O)=C1O [ViC_palmitate, ascorbic palmitate]	the peroxide values of all the liquid crystal formers used in this test example were low
tocopherol	the peroxide value is higher than when no stabilizer is used
